Source: US20150094354A1, “METHOD FOR TREATING CELL PROLIFERATIVE DISORDER BY INHIBITING C1GALT1 EXPRESSION” (National Taiwan University, priority 2013, published 2015)

Key:
Assay type in all cases: cell-based, human
[1] = tested on: O-glycans on glycoproteins; experiment: Western blotting with biotinylated VVA of glycoproteins in hepatocellular carcinoma cells
Description: (§1) Vicia villosa agglutinin (VVA)- and peanut agglutinin (PNA) lectin-conjugated agarose beads, fluorescein isothiocyanate (FITC)-, and biotinylated VVA were purchased from Vector Laboratories. Recombinant EGF, HGF, IGF-I, and protein deglycosylation kits were purchased from Sigma. Protein deglycosylation is carried out using an Enzymatic Protein Deglycosylation Kit (Sigma). Briefly, cell lysates are treated with neuraminidase or PNGase F at 37° C. for 1 hour. For lectin blotting, […] of cell lysate is separated by an 8% SDS-PAGE, transferred to polyvinylidene difluoride membrane (Millipore), and blotted with biotinylated VVA (1:10,000). For lectin pull-down assay, cell lysates (0.3 mg) are incubated with or without deglycosylation enzymes and then applied to VVA- or PNA-conjugated agarose beads at 4° C. for 16 hours. The pulled down proteins are analyzed by Western blotting.
HA22T and PLC5 cells express high levels of C1GALT1, while Sk-Hep1 and HCC36 cells express low levels of C1GALT1, as shown in FIG. 6B. […] Compared with pcDNA3.1 empty plasmid (mock), overexpression of C1GALT1 in Sk-Hep1 and HCC36 cells transfected with C1GALT1/pcDNA3.1 plasmid (C1GALT1) is shown in FIG. 7B Immunofluorescence microscopy further confirmed the knockdown and overexpression of C1GALT1 in hepatocellular carcinoma cells and its subcellular localization in the Golgi apparatus (not shown). […] Proteins with evident changes in VVA binding are indicated by arrows. p140 changes in all tested cell lines are indicated by red arrows.

[2] = tested on: HGF/MET signaling pathway; experiment: HGF-induced signaling by Western blotting
Description: Human liver cancer cell lines, Huh7, PLC5, Sk-Hep1, and HepG2, are purchased from Bioresource Collection and Research Center in the year 2008. HA22T, SNU387, and HCC36 cells are kindly provided by Prof. Shiou-Hwei Yeh (National Taiwan University) in the year 2010. All cell lines are authenticated by the provider based on morphology, antigen expression, growth, DNA profile, and cytogenetics. Cells are cultured in Dulbecco's Modified Eagle Medium (DMEM) containing 10% FBS in 5% CO2 at 37° C. To analyze growth factor-induced cell signaling, cells are starved in serum-free DMEM for 5 hours and then treated with 25 ng/mL of hepatocyte growth factor (HGF) or insulin-like growth factor (IGF) at 37° C. for 30 minutes.
Equal amounts of protein samples are mixed with 5× sample buffer and boiled for 5 minutes, separated on SDS-polyacrylamide gels, and then transferred to PVDF membrane. The membranes are blocked in 5% BSA for 1 hour at room temperature, and incubated with primary antibodies overnight at 4° C. Anti-phosphotyrosine (4G10) antibody (Millipore, Billerica, Mass.), antibodies against C1GALT1, GAPDH, IGF-IR, MET pY 1234/5, IGF-IR pY1135/1136, p-AKT, p-ERK1/2, and ERK1/2 antibody (BD Pharmingen, San Jose, Calif.) are used. The blots are then incubated with secondary antibody conjugated with horseradish peroxidase and immunoreacted bands are detected by ECL reagents and exposed on x-ray film.
FIGS. 13A-13B are autoradiograms illustrating the effects of C1GALT1 on the HGF-induced signaling and IGF-induced signaling in hepatocellular carcinoma cells in accordance with an embodiment of the present invention. The role of C1GALT1 in glycosylation and activation of MET in hepatocellular carcinoma cells was investigated. HA22T, PLC5, Sk-Hep1, and HCC36 cells were starved for 5 hours and then treated with (+)/without (−) HGF (25 ng/mL) or IGF (25 ng/mL) for 30 minutes. Cell lysates ([…]) were analyzed by Western blotting with various antibodies, as indicated. […] In contrast, overexpression of C1GALT1 enhanced HGF-induced activation of MET and increased p-AKT levels in Sk-Hep1 and HCC36 cells, as shown in FIG. 13B.

[3] = tested on: MET; experiment: VVA lectin pull-down of MET
Description: as §1
To investigate whether C1GALT1 can modify O-glycans on MET, VVA binding to MET was analyzed in hepatocellular carcinoma cells with C1GALT1 knockdown or overexpression. […] Cell lysates were treated with (+) or without (−) neuraminidase and then pulled down by VVA agarose beads. The pulled down glycoproteins were immunoblotted (IB) with anti-MET antibody. These findings indicate that C1GALT1 can modify O-glycans on MET in hepatocellular carcinoma cells. […]

[4] = tested on: MET; experiment: HGF-induced dimerization of MET (BS3 cross-linking, Western blotting); details: 25 ng/mL HGF
Description: MET is also called hepatocyte growth factor receptor (HGFR). The MET gene is an important protooncogene in a variety of human cancers. To analyze dimerization of MET, hepatocellular carcinoma cells are incubated with or without 25 ng/mL of human HGF in DMEM on ice for 5 minutes. Cross-linker Bis(sulfosuccinimidyl) suberate (BS3, 0.25 mmol/L, Thermo Scientific) is added to cells and reacted at 37° C. for 5 minutes. Cells are then transferred on ice for 10 minutes. Reactions are blocked by adding 50 mmol/L of Tris-HCl (pH 7.4). Cell lysates are separated by 6% SDS-PAGE and immunoblotted with anti-MET antibody.
Because HGF-induced dimerization of MET is an initial and crucial step for the activation of MET signaling, whether C1GALT1 could affect MET dimerization was analyzed. FIGS. 19A-19B are autoradiograms illustrating the effects of C1GALT1 on dimerization of MET in hepatocellular carcinoma cells in accordance with an embodiment of the present invention. Hepatocellular carcinoma cells were starved for 5 hours and then treated with (+) or without (−) 25 ng/mL of HGF. Cell lysates were cross-linked by BS3 and then analyzed by Western blotting with anti-MET antibody. The arrows indicate the dimer (D) of MET, and the arrowheads indicate the monomer (M). Markers of molecular weight are shown on the left. GAPDH is an internal control.

| Substance | binding of VVA to glycoproteins ([1]; HA22T cells) | binding of VVA to glycoproteins ([1]; PLC5 cells) | HGF-induced phosphorylation of MET at Y1234/5 ([2]; HA22T, HGF 25 ng/mL 30 minutes) | phosphorylation of AKT ([2]; HA22T, HGF 25 ng/mL 30 minutes) | HGF-induced phosphorylation of MET at Y1234/5 ([2]; PLC5, HGF 25 ng/mL 30 minutes) | phosphorylation of AKT ([2]; PLC5, HGF 25 ng/mL 30 minutes) | VVA binding to MET ([3]; HA22T cells) | VVA binding to MET ([3]; PLC5 cells) | HGF-induced dimerization of MET ([4]; HA22T cells) | HGF-induced dimerization of MET ([4]; PLC5 cells) |
| --- | --- | --- | --- | --- | --- | --- | --- | --- | --- | --- |
| C1GALT1 si-1: siRNA oligonucleotide against C1GALT1, presumably SEQ ID NO: 1, UUAGUAUACGUUCAGGUAAGGUAGG (chemistry not given here) | enhanced | enhanced | inhibited | suppressed | inhibited | suppressed | increased | increased | suppressed | suppressed |
| C1GALT1 si-2: siRNA oligonucleotide against C1GALT1, presumably SEQ ID NO: 2, UUAUGUUGGCUAGAAUCUGCAUUGA (chemistry not given here) | enhanced | enhanced | inhibited | suppressed | inhibited | suppressed | – | – | – | – |
